System: 885724-159-R-J1-PDC KRAS PDC multicell spheroid viability
Assay: Anticancer human tumor 885724-159-R-J1-PDC patient-derived pancreatic adenocarcinoma cell line growth inhibition [KRAS2]
Settings: for viability, T/C: stronger effect = lower value
Method in brief: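 KRAS-mutant tumor cells were grown as spheroids with HUVEC endothelial cells and human MSCs as stroma. Targeted agents were tested alone and with KRAS pathway inhibitors. Doses started at or near clinical Cmax, or 10 microM, descending half-log.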

[1] = curve of first compound, second compound 0.1 µM
[2] = curve of first compound, second compound 0.316 µM
[3] = curve of first compound, second compound 1 µM
[4] = curve of first compound, second compound 3.16 µM
[5] = curve of first compound, second compound 10 µM
[6] = second compound 0.1 µM, first compound 0.0316 µM
[7] = second compound 0.1 µM, first compound 0.1 µM
[8] = second compound 0.1 µM, first compound 0.316 µM
[9] = second compound 0.1 µM, first compound 1 µM
[10] = second compound 0.1 µM, first compound 3.16 µM
[11] = second compound 0.1 µM, first compound 10 µM
[12] = second compound 0.316 µM, first compound 0.0316 µM
[13] = second compound 0.316 µM, first compound 0.1 µM
[14] = second compound 0.316 µM, first compound 0.316 µM
[15] = second compound 0.316 µM, first compound 1 µM
[16] = second compound 0.316 µM, first compound 3.16 µM
[17] = second compound 0.316 µM, first compound 10 µM
[18] = second compound 1 µM, first compound 0.0316 µM
[19] = second compound 1 µM, first compound 0.1 µM
[20] = second compound 1 µM, first compound 0.316 µM
[21] = second compound 1 µM, first compound 1 µM
[22] = second compound 1 µM, first compound 3.16 µM
[23] = second compound 1 µM, first compound 10 µM
[24] = second compound 3.16 µM, first compound 0.0316 µM
[25] = second compound 3.16 µM, first compound 0.1 µM
[26] = second compound 3.16 µM, first compound 0.316 µM
[27] = second compound 3.16 µM, first compound 1 µM
[28] = second compound 3.16 µM, first compound 3.16 µM
[29] = second compound 3.16 µM, first compound 10 µM
[30] = second compound 10 µM, first compound 0.0316 µM
[31] = second compound 10 µM, first compound 0.1 µM
[32] = second compound 10 µM, first compound 0.316 µM
[33] = second compound 10 µM, first compound 1 µM
[34] = second compound 10 µM, first compound 3.16 µM
[35] = second compound 10 µM, first compound 10 µM
[36] = second compound 0.1 µM, first compound 0.01 µM
[37] = second compound 0.316 µM, first compound 0.01 µM
[38] = second compound 1 µM, first compound 0.01 µM
[39] = second compound 3.16 µM, first compound 0.01 µM
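Note: spheroids exposed to agents for 7 days before readout.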

## COC(=O)c1ccc2c(C(=Nc3ccc(N(C)C(=O)CN4CCN(C)CC4)cc3)c3ccccc3)c(O)[nH]c2c1 + CC1OCC2(CCN(c3cnc(Sc4ccnc(N)c4Cl)c(N)n3)CC2)C1N
[1]
  IC50: 2020 nM
[2]
  IC50: 1820 nM
[3]
  IC50: 1520 nM
[4]
  IC50: 1400 nM
[5]
  IC50: 1090 nM
[6]
  viability, T/C: 95%
[7]
  viability, T/C: 95.8%
[8]
  viability, T/C: 92.2%
[9]
  viability, T/C: 94.2%
[10]
  viability, T/C: 21.9%
[11]
  viability, T/C: 0.87%
[12]
  viability, T/C: 91.4%
[13]
  viability, T/C: 84.9%
[14]
  viability, T/C: 80.9%
[15]
  viability, T/C: 86.4%
[16]
  viability, T/C: 17.1%
[17]
  viability, T/C: 0.39%
[18]
  viability, T/C: 67.3%
[19]
  viability, T/C: 69.3%
[20]
  viability, T/C: 73.8%
[21]
  viability, T/C: 70.2%
[22]
  viability, T/C: 14.8%
[23]
  viability, T/C: 1.25%
[24]
  viability, T/C: 66.9%
[25]
  viability, T/C: 74.1%
[26]
  viability, T/C: 78.2%
[27]
  viability, T/C: 66%
[28]
  viability, T/C: 10.4%
[29]
  viability, T/C: 0.29%
[30]
  viability, T/C: 62%
[31]
  viability, T/C: 68.8%
[32]
  viability, T/C: 61.4%
[33]
  viability, T/C: 53.9%
[34]
  viability, T/C: 2.07%
[35]
  viability, T/C: 0.63%

## Cn1ncnc1[C@H]1c2n[nH]c(=O)c3cc(F)cc(c23)N[C@@H]1c1ccc(F)cc1
Compound 0.000316 µM
  viability, T/C: 102% [middle of 5 runs]
Compound 0.001 µM
  viability, T/C: 102% [middle of 5 runs]
Compound 0.00316 µM
  viability, T/C: 97.3% [middle of 5 runs]
Compound 0.01 µM
  viability, T/C: 98.2% [middle of 5 runs]
Compound 0.0316 µM
  viability, T/C: 96.2% [middle of 5 runs]
Compound 0.1 µM
  viability, T/C: 91% [middle of 5 runs]
Curve of compound
  IC50: > 100 nM

## COc1cc(Nc2ncc3c(n2)-c2ccc(Cl)cc2C(c2c(F)cccc2OC)=NC3)ccc1C(=O)O
Compound 0.0316 µM
  viability, T/C: 93.8% [middle of 5 runs]
Compound 0.1 µM
  viability, T/C: 89.1% [middle of 5 runs]
Compound 0.316 µM
  viability, T/C: 88.7% [middle of 5 runs]
Compound 1 µM
  viability, T/C: 90% [middle of 5 runs]
Compound 3.16 µM
  viability, T/C: 96.2% [middle of 5 runs]
Compound 10 µM
  viability, T/C: 98.4% [middle of 5 runs]
Curve of compound
  IC50: > 10000 nM

## CN(C)C/C=C/C(=O)Nc1cc2c(Nc3ccc(F)c(Cl)c3)ncnc2cc1O[C@H]1CCOC1 + C=CC(=O)N1CCN(c2nc(OCC3CCCN3C)nc3c2CCN(c2cccc4cccc(C)c24)C3)CC1CC#N
Curve of first compound, second compound 0.0316 µM
  IC50: > 100 nM
[1]
  IC50: > 100 nM
[2]
  IC50: > 100 nM
[3]
  IC50: > 100 nM
[4]
  IC50: 1.57 nM
Second compound 0.0316 µM, first compound 0.000316 µM
  viability, T/C: 116%
Second compound 0.0316 µM, first compound 0.001 µM
  viability, T/C: 112%
Second compound 0.0316 µM, first compound 0.00316 µM
  viability, T/C: 98.5%
Second compound 0.0316 µM, first compound 0.01 µM
  viability, T/C: 94.5%
Second compound 0.0316 µM, first compound 0.0316 µM
  viability, T/C: 89.1%
Second compound 0.0316 µM, first compound 0.1 µM
  viability, T/C: 80.3%
Second compound 0.1 µM, first compound 0.000316 µM
  viability, T/C: 109%
Second compound 0.1 µM, first compound 0.001 µM
  viability, T/C: 101%
Second compound 0.1 µM, first compound 0.00316 µM
  viability, T/C: 96.5%
[36]
  viability, T/C: 83.1%
[6]
  viability, T/C: 77.4%
[7]
  viability, T/C: 72%
Second compound 0.316 µM, first compound 0.000316 µM
  viability, T/C: 105%
Second compound 0.316 µM, first compound 0.001 µM
  viability, T/C: 106%
Second compound 0.316 µM, first compound 0.00316 µM
  viability, T/C: 92.4%
[37]
  viability, T/C: 84.1%
[12]
  viability, T/C: 72%
[13]
  viability, T/C: 65.7%
Second compound 1 µM, first compound 0.000316 µM
  viability, T/C: 95%
Second compound 1 µM, first compound 0.001 µM
  viability, T/C: 100%
Second compound 1 µM, first compound 0.00316 µM
  viability, T/C: 86.8%
[38]
  viability, T/C: 78.4%
[18]
  viability, T/C: 68.7%
[19]
  viability, T/C: 63.9%
Second compound 3.16 µM, first compound 0.000316 µM
  viability, T/C: 61.5%
Second compound 3.16 µM, first compound 0.001 µM
  viability, T/C: 55.9%
Second compound 3.16 µM, first compound 0.00316 µM
  viability, T/C: 40.8%
[39]
  viability, T/C: 37.7%
[24]
  viability, T/C: 36.4%
[25]
  viability, T/C: 37.7%

## CC1COCCN1c1cc(-c2ccnn2C)c2ccnc(-c3ccn[nH]3)c2n1 (centres undefined) + COc1cc2nc(C)nc(NC(C)c3cc(N)cc(C(F)(F)F)c3)c2cc1OC1CCOC1
[1]
  IC50: 2720 nM
[2]
  IC50: > 3160 nM
[3]
  IC50: > 3160 nM
[4]
  IC50: > 3160 nM
[5]
  IC50: < 10 nM
[36]
  viability, T/C: 99.4%
[6]
  viability, T/C: 91.6%
[7]
  viability, T/C: 71.5%
[8]
  viability, T/C: 62.5%
[9]
  viability, T/C: 49.1%
[10]
  viability, T/C: 50.9%
[37]
  viability, T/C: 101%
[12]
  viability, T/C: 94.3%
[13]
  viability, T/C: 70%
[14]
  viability, T/C: 63%
[15]
  viability, T/C: 52%
[16]
  viability, T/C: 53.9%
[38]
  viability, T/C: 111%
[18]
  viability, T/C: 88.4%
[19]
  viability, T/C: 73.5%
[20]
  viability, T/C: 60.6%
[21]
  viability, T/C: 56%
[22]
  viability, T/C: 58.4%
[39]
  viability, T/C: 97.3%
[24]
  viability, T/C: 89.2%
[25]
  viability, T/C: 71.3%
[26]
  viability, T/C: 61.9%
[27]
  viability, T/C: 59.2%
[28]
  viability, T/C: 52.9%
Second compound 10 µM, first compound 0.01 µM
  viability, T/C: 46%
[30]
  viability, T/C: 51.7%
[31]
  viability, T/C: 49.4%
[32]
  viability, T/C: 34.2%
[33]
  viability, T/C: 41.9%
[34]
  viability, T/C: 32.2%

## COc1cc2nccc(Oc3ccc(NC(=O)C4(C(=O)Nc5ccc(F)cc5)CC4)cc3)c2cc1OC + CNCc1ccccc1-c1csc(C(C)Nc2nc(C)nc3cc(OC)c(OC)cc23)c1
[1]
  IC50: > 10000 nM
[2]
  IC50: > 10000 nM
[3]
  IC50: 1770 nM
[4]
  IC50: < 31.6 nM
[5]
  IC50: < 31.6 nM
[6]
  viability, T/C: 98.3%
[7]
  viability, T/C: 105%
[8]
  viability, T/C: 99.2%
[9]
  viability, T/C: 103%
[10]
  viability, T/C: 69.5%
[11]
  viability, T/C: 61.3%
[12]
  viability, T/C: 96.9%
[13]
  viability, T/C: 101%
[14]
  viability, T/C: 95.3%
[15]
  viability, T/C: 90%
[16]
  viability, T/C: 61.6%
[17]
  viability, T/C: 58.7%
[18]
  viability, T/C: 99%
[19]
  viability, T/C: 89.9%
[20]
  viability, T/C: 85.1%
[21]
  viability, T/C: 86.1%
[22]
  viability, T/C: 13.3%
[23]
  viability, T/C: 12.6%
[24]
  viability, T/C: 1.16%
[25]
  viability, T/C: 0.87%
[26]
  viability, T/C: 1.19%
[27]
  viability, T/C: 0.42%
[28]
  viability, T/C: 0.32%
[29]
  viability, T/C: 0.42%
[30]
  viability, T/C: 0.39%
[31]
  viability, T/C: 0.36%
[32]
  viability, T/C: 0.17%
[33]
  viability, T/C: 0.18%
[34]
  viability, T/C: 0.51%
[35]
  viability, T/C: 0.47%

## O=C(c1cc(Cc2n[nH]c(=O)c3ccccc23)ccc1F)N1CCN(C(=O)C2CC2)CC1 + COc1cc2nc(C)nc(NC(C)c3cc(N)cc(C(F)(F)F)c3)c2cc1OC1CCOC1
[1]
  IC50: > 10000 nM
[2]
  IC50: > 10000 nM
[3]
  IC50: > 10000 nM
[4]
  IC50: > 10000 nM
[5]
  IC50: > 10000 nM
[6]
  viability, T/C: 129%
[7]
  viability, T/C: 122%
[8]
  viability, T/C: 110%
[9]
  viability, T/C: 113%
[10]
  viability, T/C: 98.2%
[11]
  viability, T/C: 95%
[12]
  viability, T/C: 113%
[13]
  viability, T/C: 106%
[14]
  viability, T/C: 104%
[15]
  viability, T/C: 103%
[16]
  viability, T/C: 98%
[17]
  viability, T/C: 91.5%
[18]
  viability, T/C: 129%
[19]
  viability, T/C: 134%
[20]
  viability, T/C: 132%
[21]
  viability, T/C: 115%
[22]
  viability, T/C: 111%
[23]
  viability, T/C: 91.4%
[24]
  viability, T/C: 91.4%
[25]
  viability, T/C: 102%
[26]
  viability, T/C: 94.8%
[27]
  viability, T/C: 95.2%
[28]
  viability, T/C: 91.9%
[29]
  viability, T/C: 81.7%
[30]
  viability, T/C: 97%
[31]
  viability, T/C: 102%
[32]
  viability, T/C: 98.4%
[33]
  viability, T/C: 92.5%
[34]
  viability, T/C: 107%
[35]
  viability, T/C: 93.3%
